Active and inactive are the calls of the source. No cut-off for these calls is given here.
Legend:
Staphylococcus aureus [1] = experiment: Bactericidal activity against methicillin-susceptible Staphylococcus aureus IFO 12732 assessed as log10 reduction in viable cell count at 28 uM up to 120 min by agar dilution test; format: functional
Staphylococcus aureus [2] = experiment: Bactericidal activity against methicillin-susceptible Staphylococcus aureus IFO 12732 assessed as log10 reduction in viable cell count at 280 uM up to 30 min by agar dilution test; format: functional, organism-based
Escherichia coli [3] = experiment: Bactericidal activity against Escherichia coli IFO 3806 assessed as log10 reduction in viable cell count at 28 to 280 uM after 30 to 120 min by agar dilution test; format: functional, organism-based
Staphylococcus aureus [4] = experiment: Bactericidal activity against methicillin-susceptible Staphylococcus aureus IFO 12732 assessed as log10 reduction in viable cell count at 28 uM up to 60 min by agar dilution test; format: functional, organism-based
Escherichia coli [5] = experiment: Bactericidal activity against Escherichia coli IFO 3806 assessed as log10 reduction in viable cell count at 2.8 uM up to 120 min by agar dilution test; format: functional
Penicillium citrinum = experiment: Antifungal activity against Penicillium citrinum ATCC 9849 by spread plate method; format: functional
Trichoderma harzianum = experiment: Antifungal activity against Trichoderma harzianum by spread plate method; format: functional
Klebsiella aerogenes = experiment: Antibacterial activity against Enterobacter aerogenes by spread plate method; format: functional
Bacillus spizizenii = experiment: Bacteriostatic activity against Bacillus subtilis subsp. spizizenii ATCC 6633 by spread plate method; format: functional
Staphylococcus aureus [6] = experiment: Bacteriostatic activity against methicillin-susceptible Staphylococcus aureus 209P by spread plate method; format: functional
Debaryomyces hansenii = experiment: Antifungal activity against Candida famata IFO 0380 by spread plate method; format: functional
Pseudomonas aeruginosa = experiment: Antibacterial activity against Pseudomonas aeruginosa ATCC 27853 by spread plate method; format: functional
Geotrichum candidum = experiment: Antifungal activity against Galactomyces geotrichum IFO 6454 by spread plate method; format: functional
Staphylococcus aureus [7] = experiment: Bacteriostatic activity against methicillin-resistant Staphylococcus aureus by spread plate method; format: functional
Staphylococcus aureus [8] = experiment: Bacteriostatic activity against methicillin-susceptible Staphylococcus aureus IFO 12732 by spread plate method; format: functional
Escherichia coli [9] = experiment: Antibacterial activity against Escherichia coli NIHJ by spread plate method; format: functional
Escherichia coli [10] = experiment: Antibacterial activity against Escherichia coli IFO 3806 by spread plate method; format: functional
Rhizopus stolonifer = experiment: Antifungal activity against Rhizopus stolonifer ATCC 6227 by spread plate method; format: functional
Escherichia coli [11] = experiment: Bactericidal activity against Escherichia coli IFO 3806 assessed as log10 reduction in viable cell count at 280 uM after 30 to 120 min by agar dilution test; format: functional, organism-based
Staphylococcus aureus [12] = experiment: Bactericidal activity against methicillin-susceptible Staphylococcus aureus IFO 12732 assessed as log10 reduction in viable cell count at 280 uM after 30 to 120 min by agar dilution test; format: functional, organism-based
Staphylococcus aureus [13] = experiment: Bactericidal activity against methicillin-susceptible Staphylococcus aureus IFO 12732 assessed as log10 reduction in viable cell count at 2.8 to 280 uM after 30 to 120 min by agar dilution test; format: functional, organism-based
Escherichia coli [14] = experiment: Bactericidal activity against Escherichia coli IFO 3806 assessed as log10 reduction in viable cell count at 2.8 to 280 uM after 30 to 120 min by agar dilution test; format: functional, organism-based
Staphylococcus aureus [15] = experiment: Bactericidal activity against methicillin-susceptible Staphylococcus aureus IFO 12732 assessed as log10 reduction in viable cell count at 2.8 uM up to 120 min by agar dilution test; format: functional
Escherichia coli [16] = experiment: Bactericidal activity against Escherichia coli IFO 3806 assessed as log10 reduction in viable cell count at 0.28 to 280 uM up to 30 min by agar dilution test; format: functional, organism-based
Staphylococcus aureus [17] = experiment: Bactericidal activity against methicillin-susceptible Staphylococcus aureus IFO 12732 assessed as log10 reduction in viable cell count at 2.8 uM up to 30 min by agar dilution test; format: functional, organism-based
Staphylococcus aureus [18] = experiment: Bactericidal activity against methicillin-susceptible Staphylococcus aureus IFO 12732 assessed as log10 reduction in viable cell count at 0.28 uM by agar dilution test; format: functional, organism-based
Staphylococcus aureus [19] = experiment: Bactericidal activity against methicillin-susceptible Staphylococcus aureus IFO 12732 assessed as log10 reduction in viable cell count at 0.28 to 280 uM up to 30 min by agar dilution test; format: functional, organism-based

Compound | MIC (Penicillium citrinum) [µg/mL] | MIC (Trichoderma harzianum) [µg/mL] | MIC (Klebsiella aerogenes) [µg/mL] | MIC (Bacillus spizizenii) [µg/mL] | MIC (Staphylococcus aureus [6]) [µg/mL] | MIC (Debaryomyces hansenii) [µg/mL] | MIC (Pseudomonas aeruginosa) [µg/mL] | MIC (Geotrichum candidum) [µg/mL] | MIC (Staphylococcus aureus [7]) [µg/mL] | MIC (Staphylococcus aureus [8]) [µg/mL] | MIC (Escherichia coli [9]) [µg/mL] | MIC (Escherichia coli [10]) [µg/mL] | MIC (Rhizopus stolonifer) [µg/mL] | further results
CCCCCCCCCCCCCC[N+](C)(C)C.[Cl-] |  |  |  |  |  |  |  |  |  |  |  |  |  | Activity (Staphylococcus aureus [1]): >99.9%; Activity (Staphylococcus aureus [2]): Active; Activity (Escherichia coli [3]): Active
CCCCCCCCCCCCCCCCCC[N+](C)(C)C |  |  |  |  |  |  |  |  |  |  |  |  |  | Activity (Staphylococcus aureus [4]): Active
CCCCCCCCCC[N+](C)(C)CCCCCCCCCC |  |  |  |  |  |  |  |  |  |  |  |  |  | Activity (Escherichia coli [5]): inactive
CCCCCCCCCCCCCCCCCC[P+](C)(C)Cc1ccc(CC)cc1.[Cl-] [(4-ETHYLBENZYL)DIMETHYL(OCTADECYL)PHOSPHONIUM CHLORIDE] | > 200 | > 200 | > 200 | 25 | 12.5 | > 200 | > 200 | > 200 | 25 | 12.5 | > 200 | > 200 | > 200 | 
CCCCCCCCCCCCCC[P+](C)(C)Cc1ccc(CC)cc1.[Cl-] [(4-ETHYLBENZYL)DIMETHYL(TETRADECYL)PHOSPHONIUM CHLORIDE] | > 200 | > 200 | 200 | 1.56 | 1.56 | 6.25 | 200 | 6.25 | 1.56 | 1.56 | 200 | 200 | > 200 | 
CCCCCCCCCC[P+](C)(C)Cc1ccc(CC)cc1.[Cl-] [DECYL(4-ETHYLBENZYL)DIMETHYLPHOSPHONIUM CHLORIDE] | 200 | > 200 | 25 | 1.56 | 0.78 | 12.5 | 200 | 6.25 | 1.56 | 0.78 | 12.5 | 12.5 | > 200 | 
CCCCCCCCCC[P+](C)(C)C.[Cl-] [DECYLTRIMETHYLPHOSPHONIUM CHLORIDE] | > 200 | > 200 | > 200 | 50 | 3.13 | > 200 | > 200 | > 200 | 50 | 3.13 | 200 | 200 | > 200 | Activity (Escherichia coli [11]): inactive; Activity (Staphylococcus aureus [12]): inactive
CCCCCCCCCC[P+](C)(C)CCCCCCCCCC.[Cl-] [DIDECYLDIMETHYLPHOSPHONIUM CHLORIDE] | 100 | 200 | 3.13 | 0.78 | 0.78 | 1.56 | 200 | 3.13 | 0.78 | 0.78 | 3.13 | 3.13 | > 200 | Activity (Staphylococcus aureus [13]): Active; Activity (Escherichia coli [14]): Active
CCCCCCCCCCCCCCCCCC[P+](C)(C)CCCCCCCCCCCCCCCCCC.[Cl-] [DIOCTADECYLDIMETHYLPHOSPHONIUM CHLORIDE] | > 200 | > 200 | > 200 | > 200 | 100 | > 200 | > 200 | > 200 | > 200 | 100 | > 200 | > 200 | > 200 | Activity (Staphylococcus aureus [1]): >99.99%; Activity (Escherichia coli [14]): Active
CCCCCCCCCCCCCC[P+](C)(C)CCCCCCCCCCCCCC.[Cl-] [DITETRADECYLDIMETHYLPHOSPHONIUM CHLORIDE] | > 200 | > 200 | > 200 | 100 | 12.5 | > 200 | > 200 | > 200 | 200 | 12.5 | > 200 | > 200 | > 200 | Activity (Staphylococcus aureus [4]): Active; Activity (Staphylococcus aureus [2]): Active; Activity (Escherichia coli [14]): Active; Activity (Staphylococcus aureus [15]): >99.999%
CCCCCCCCCCCCCCCCCC[P+](C)(C)C.[Cl-] [OCTADECYLTRIMETHYLPHOSPHONIUM CHLORIDE] | > 200 | > 200 | > 200 | 3.13 | 0.78 | 12.5 | > 200 | > 200 | 1.56 | 0.78 | > 200 | > 200 | > 200 | Activity (Escherichia coli [5]): >99.9%; Activity (Escherichia coli [16]): Active; Activity (Staphylococcus aureus [17]): Active; Activity (Staphylococcus aureus [18]): inactive
CCCCCCCCCCCCCC[P+](C)(C)C.[Cl-] [TETRADECYLTRIMETHYLPHOSPHONIUM CHLORIDE] | 200 | 200 | 100 | 0.2 | 0.2 | 200 | 200 | 50 | 1.56 | 0.2 | 12.5 | 12.5 | 200 | Activity (Staphylococcus aureus [4]): Active; Activity (Staphylococcus aureus [19]): Active; Activity (Escherichia coli [16]): Active; Activity (Escherichia coli [3]): Active
CCCC[P+](CCCC)(CCCC)Cc1ccc(CC)cc1.[Cl-] [TRIBUTYL(4-ETHYLBENZYL)PHOSPHONIUM CHLORIDE] | > 200 | > 200 | > 200 | 100 | 50 | > 200 | > 200 | > 200 | 50 | 50 | > 200 | > 200 | > 200 | 

Source: ChEMBL document CHEMBL3044951, “Synthesis and antimicrobial activity of dimethyl- and trimethyl-substituted phosphonium salts with alkyl chains of various lengths” (1994)
